Measured values from patent US10202361B2, “Pyridazinones as herbicides” (E I DU PONT DE NEMOURS AND COMPANY, priority 2014, dated 2019).

Assays:
Experiment in all cases: Test C pre-/postemergence greenhouse herbicide test
Assay type in all cases: in vivo
corn (Zea mays) = settings: Zea mays, post-emergence, Corn, Postemergence, read-out: Plant response rating
How it was run: (§1)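 Seeds in loam–sand blend sprayed preemergence, and 1- to 4-leaf plants (2–18 cm) sprayed postemergence, with compounds in non-phytotoxic solvent plus surfactant. Visual rating versus controls after 13–15 d in greenhouse, 0 (no effect) to 100 (complete control).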

[1] = test system: blackgrass (Alopecurus myosuroides); settings: Alopecurus myosuroides, post-emergence, Blackgrass, Postemergence, read-out: Plant response rating
How it was run: as §1

[2] = test system: pigweed (Amaranthus retroflexus); settings: Amaranthus retroflexus, post-emergence, Pigweed, Postemergence, read-out: Plant response rating
How it was run: as §1

[3] = test system: crabgrass, Large (large crabgrass, Digitaria sanguinalis); settings: Digitaria sanguinalis, post-emergence, Crabgrass, Large, Postemergence, read-out: Plant response rating
How it was run: as §1

kochia (Kochia scoparia) = settings: Postemergence
How it was run: as §1

soybean (Glycine max) = settings: Glycine max, post-emergence, Soybean, Postemergence, read-out: Plant response rating
How it was run: as §1

[4] = test system: waterhemp (common waterhemp, Amaranthus rudis); settings: Waterhemp, Postemergence
How it was run: as §1

[5] = test system: lambsquarters (Chenopodium album); settings: Postemergence
How it was run: as §1

[6] = test system: oat, wild (wild oat, Avena fatua); settings: Postemergence
How it was run: as §1

[7] = test system: ragweed (common ragweed, Ambrosia elatior); settings: Ambrosia artemisiifolia, post-emergence, Ragweed, Postemergence, read-out: Plant response rating
How it was run: as §1

[8] = test system: ryegrass, Italian (Italian ryegrass, Lolium multiflorum); settings: Lolium multiflorum, post-emergence, Ryegrass, Italian, Postemergence, read-out: Plant response rating
How it was run: as §1

[9] = test system: wheat (winter wheat, Triticum aestivum); settings: Triticum aestivum, post-emergence, Wheat, Postemergence, read-out: Plant response rating
How it was run: as §1

Cc1cc(Oc2ccnc(C(F)(F)F)c2)nn(-c2ccc(C(F)(F)F)cc2)c1=O [Compound 6, 4-methyl-2-[4-(trifluoromethyl)phenyl]-6-[[2-(trifluoromethyl)-4-pyridinyl]oxy]-3(2H)-pyridazinone]
plant injury at 31 g/ha (corn (Zea mays); 31 g ai/ha): 15%
plant injury at 62 g/ha (corn (Zea mays); 62 g ai/ha): 25%
plant injury at 125 g/ha (corn (Zea mays); 125 g ai/ha): 25%
plant injury at 250 g/ha (corn (Zea mays); 250 g ai/ha): 35%
pest or weed control at 31 g/ha ([1]; 31 g ai/ha): 30%
pest or weed control at 62 g/ha ([1]; 62 g ai/ha): 35%
pest or weed control at 125 g/ha ([1]; 125 g ai/ha): 35%
pest or weed control at 250 g/ha ([1]; 250 g ai/ha): 50%
pest or weed control at 31 g/ha ([2]; 31 g ai/ha): 85%
pest or weed control at 62 g/ha ([2]; 62 g ai/ha): 95%
pest or weed control at 125 g/ha ([2]; 125 g ai/ha): 95%
pest or weed control at 250 g/ha ([2]; 250 g ai/ha): 95%
pest or weed control at 31 g/ha ([3]; 31 g ai/ha): 10%
pest or weed control at 62 g/ha ([3]; 62 g ai/ha): 20%
pest or weed control at 125 g/ha ([3]; 125 g ai/ha): 30%
pest or weed control at 250 g/ha ([3]; 250 g ai/ha): 35%
Plant response rating (kochia (Kochia scoparia); 31 g ai/ha): 90
Plant response rating (kochia (Kochia scoparia); 62 g ai/ha): 90
Plant response rating (kochia (Kochia scoparia); 125 g ai/ha): 90
Plant response rating (kochia (Kochia scoparia); 250 g ai/ha): 95
plant injury at 31 g/ha (soybean (Glycine max); 31 g ai/ha): 35%
plant injury at 62 g/ha (soybean (Glycine max); 62 g ai/ha): 50%
plant injury at 125 g/ha (soybean (Glycine max); 125 g ai/ha): 50%
plant injury at 250 g/ha (soybean (Glycine max); 250 g ai/ha): 65%
Plant response rating ([4]; 31 g ai/ha): 95
Plant response rating ([4]; 62 g ai/ha): 98
Plant response rating ([4]; 125 g ai/ha): 98
Plant response rating ([4]; 250 g ai/ha): 98
Plant response rating ([5]; 31 g ai/ha): 75
Plant response rating ([5]; 62 g ai/ha): 90
Plant response rating ([5]; 125 g ai/ha): 95
Plant response rating ([5]; 250 g ai/ha): 95
Plant response rating ([6]; 31 g ai/ha): 20
Plant response rating ([6]; 62 g ai/ha): 25
Plant response rating ([6]; 125 g ai/ha): 25
Plant response rating ([6]; 250 g ai/ha): 50
pest or weed control at 31 g/ha ([7]; 31 g ai/ha): 50%
pest or weed control at 62 g/ha ([7]; 62 g ai/ha): 55%
pest or weed control at 125 g/ha ([7]; 125 g ai/ha): 80%
pest or weed control at 250 g/ha ([7]; 250 g ai/ha): 80%
pest or weed control at 31 g/ha ([8]; 31 g ai/ha): 5%
pest or weed control at 62 g/ha ([8]; 62 g ai/ha): 10%
pest or weed control at 125 g/ha ([8]; 125 g ai/ha): 15%
pest or weed control at 250 g/ha ([8]; 250 g ai/ha): 35%
plant injury at 31 g/ha ([9]; 31 g ai/ha): 10%
plant injury at 62 g/ha ([9]; 62 g ai/ha): 10%
plant injury at 125 g/ha ([9]; 125 g ai/ha): 15%
plant injury at 250 g/ha ([9]; 250 g ai/ha): 25%
